According to patent US20240254119A1 (THIRD HARMONIC BIO, INC., priority 2022, published 2024):

Legend:
wtKIT [1] = target: T1, wtKIT (Homo sapiens, UniProt P10721); assay: Caliper biochemical assay, wtKIT; conditions: Table 6, read-out: KIT Biochemical IC50 avg
T1 construct: 1888289AM in the reaction mixtures
How it was run: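 Mobility-shift read-out: after EDTA stop, fluorescent peptide substrate and product resolved electrophoretically on LabChip 3000. Reaction ran 3 h at 25° C with 400 μM ATP, Mn^2+ cofactor, 5.0 nM wtKIT, 1 μM FAM-peptide, pH 7.5 HEPES buffer; no-enzyme wells defined full inhibition.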

CSF-1R = target: T2, CSF-1R (Homo sapiens, UniProt P07333); assay: Caliper biochemical assay, CSF-1R; conditions: Table 6
T2 construct: purchased Invitrogen PV3249 (lot 662393N)
T2 sequence (P07333 20-972): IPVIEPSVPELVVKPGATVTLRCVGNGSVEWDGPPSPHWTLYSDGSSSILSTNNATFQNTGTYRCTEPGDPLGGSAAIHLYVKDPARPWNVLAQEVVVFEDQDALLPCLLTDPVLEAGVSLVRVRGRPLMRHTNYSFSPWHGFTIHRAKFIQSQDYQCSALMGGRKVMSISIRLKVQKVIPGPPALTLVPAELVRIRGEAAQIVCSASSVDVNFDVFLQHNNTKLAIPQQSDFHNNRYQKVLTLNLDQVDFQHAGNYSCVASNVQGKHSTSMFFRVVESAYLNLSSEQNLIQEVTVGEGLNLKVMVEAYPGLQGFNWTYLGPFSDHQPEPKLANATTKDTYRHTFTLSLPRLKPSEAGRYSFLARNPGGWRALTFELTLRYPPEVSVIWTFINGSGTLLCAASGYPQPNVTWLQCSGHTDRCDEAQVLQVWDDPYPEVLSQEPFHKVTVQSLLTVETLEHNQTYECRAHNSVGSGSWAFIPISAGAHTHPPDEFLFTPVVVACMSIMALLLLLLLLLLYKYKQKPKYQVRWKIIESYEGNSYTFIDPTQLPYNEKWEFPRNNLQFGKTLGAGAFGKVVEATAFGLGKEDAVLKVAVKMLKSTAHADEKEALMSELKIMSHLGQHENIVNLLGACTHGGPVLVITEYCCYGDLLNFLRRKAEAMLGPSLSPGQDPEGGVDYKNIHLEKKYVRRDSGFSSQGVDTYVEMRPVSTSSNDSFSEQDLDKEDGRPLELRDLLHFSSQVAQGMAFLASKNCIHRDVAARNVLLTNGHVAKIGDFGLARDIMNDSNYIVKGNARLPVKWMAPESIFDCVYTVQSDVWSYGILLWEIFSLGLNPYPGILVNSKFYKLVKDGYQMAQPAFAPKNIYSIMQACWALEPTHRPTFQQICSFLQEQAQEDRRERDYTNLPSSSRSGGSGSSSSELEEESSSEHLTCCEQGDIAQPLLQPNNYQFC
Method: (§1) Enzyme, substrate, and cofactors (ATP and Mn^2+) are combined in a well of a microtiter plate and incubated for 3 hours at 25° C. At the end of the incubation, the reaction is quenched by the addition of an EDTA-containing buffer. Substrate and product are separated electrophoretically using the microfluidic-based LabChip 3000 Drug Discovery System from Caliper Life Sciences* and quantitated by fluorescence intensity.
(§2) The substrate used in the CSF-1R and PDGFRα assay is FAM-[…]-CONH2 (FAM is carboxyfluorescein). Peptide should be >95% purity. The substrate for the KIT assay is FAM-[…]-NH2.
(§3) • 1. To a well of a 384-well plate add 5 μL of 2× enzyme buffer (or control) • 2. Add 100 nL of 100× compound. • 3. Add 5 μL of 2× substrate buffer. • 4. Incubate plate at 25° C. for 3 hours. • 5. Add 10 uL of […]. • 6. Read plate LabChip 3000 Drug Discovery System
(§4) • 3 hours at 25° C. where 100% Inhibitor: No enzyme.

PDGFRα = target: T3, PDGFRα (Homo sapiens, UniProt P16234); assay: Caliper biochemical assay, PDGFRα; conditions: Table 6
T3 construct: purchased Millipore 14-467 (lot 26321_ACTI)
T3 sequence (P16234 24-1089): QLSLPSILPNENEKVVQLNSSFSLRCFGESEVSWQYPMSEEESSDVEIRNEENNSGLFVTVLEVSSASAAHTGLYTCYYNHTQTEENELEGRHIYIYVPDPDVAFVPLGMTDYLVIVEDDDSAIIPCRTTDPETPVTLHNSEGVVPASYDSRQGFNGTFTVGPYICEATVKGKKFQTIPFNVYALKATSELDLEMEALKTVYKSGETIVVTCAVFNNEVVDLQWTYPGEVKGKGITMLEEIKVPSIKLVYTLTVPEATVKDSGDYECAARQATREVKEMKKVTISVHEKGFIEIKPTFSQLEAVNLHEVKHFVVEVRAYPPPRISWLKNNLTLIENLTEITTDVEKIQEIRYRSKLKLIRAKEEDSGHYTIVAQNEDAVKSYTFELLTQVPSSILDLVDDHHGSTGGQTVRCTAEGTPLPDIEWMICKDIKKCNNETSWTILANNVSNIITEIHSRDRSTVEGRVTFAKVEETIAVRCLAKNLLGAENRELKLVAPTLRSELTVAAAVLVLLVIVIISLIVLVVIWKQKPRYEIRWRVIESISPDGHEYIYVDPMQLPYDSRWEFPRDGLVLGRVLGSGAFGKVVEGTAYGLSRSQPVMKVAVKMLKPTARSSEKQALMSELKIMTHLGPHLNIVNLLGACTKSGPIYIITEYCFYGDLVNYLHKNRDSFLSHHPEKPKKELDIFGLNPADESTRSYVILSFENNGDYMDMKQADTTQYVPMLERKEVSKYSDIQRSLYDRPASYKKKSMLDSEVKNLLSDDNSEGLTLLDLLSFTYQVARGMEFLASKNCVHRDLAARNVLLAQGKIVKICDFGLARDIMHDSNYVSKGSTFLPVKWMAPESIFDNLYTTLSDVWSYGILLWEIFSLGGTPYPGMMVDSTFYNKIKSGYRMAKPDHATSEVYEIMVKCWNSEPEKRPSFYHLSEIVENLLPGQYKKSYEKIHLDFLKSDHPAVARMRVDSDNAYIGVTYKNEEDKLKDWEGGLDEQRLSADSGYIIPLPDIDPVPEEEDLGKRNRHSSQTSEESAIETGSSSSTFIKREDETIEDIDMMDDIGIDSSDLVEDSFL
Method: as §1, §2, §3, §4

[2] = target: T4, BCRP (BCRP-MDCKII monolayer) (Homo sapiens, UniProt Q9UNQ0); assay: MDCKII-BCRP bidirectional transport assay; assay type: in vitro ADME; conditions: for MDCK-BCRP: Papp A-B: apical to basolateral
T4 construct: host or cells: MDCKII (canine kidney) cells
T4 sequence (Q9UNQ0 1-655): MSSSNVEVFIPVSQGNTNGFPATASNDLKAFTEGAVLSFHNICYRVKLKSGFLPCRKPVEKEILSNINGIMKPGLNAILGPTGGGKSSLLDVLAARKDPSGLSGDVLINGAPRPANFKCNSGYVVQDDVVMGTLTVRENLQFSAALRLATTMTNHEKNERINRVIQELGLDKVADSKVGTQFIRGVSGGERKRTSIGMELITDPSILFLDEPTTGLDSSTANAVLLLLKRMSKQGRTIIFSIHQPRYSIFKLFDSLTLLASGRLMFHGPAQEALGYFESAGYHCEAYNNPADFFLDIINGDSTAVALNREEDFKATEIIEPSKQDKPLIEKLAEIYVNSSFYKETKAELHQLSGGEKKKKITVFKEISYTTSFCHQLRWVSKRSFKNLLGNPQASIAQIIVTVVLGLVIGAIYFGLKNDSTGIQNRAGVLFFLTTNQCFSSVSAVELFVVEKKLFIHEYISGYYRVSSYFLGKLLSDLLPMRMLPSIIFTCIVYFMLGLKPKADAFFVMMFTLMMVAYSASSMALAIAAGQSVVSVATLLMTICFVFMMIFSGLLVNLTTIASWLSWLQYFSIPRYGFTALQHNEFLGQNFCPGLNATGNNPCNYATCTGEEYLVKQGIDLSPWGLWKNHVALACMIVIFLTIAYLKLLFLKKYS
How it was run: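 Efflux ratios were derived from Papp values, alongside recovery, with compounds quantified by LC-MS/MS. Both directions were tested in duplicate across BCRP-MDCKII monolayers used on days 12–15. Incubation ran 120 min at 37° C, 5% CO2, after a 15 min preincubation in assay buffer.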

Kinetic solubility assay = assay type: physicochemical; conditions: kinetic solubility, 50 mM PB (pH 7.4), shaken 24 hours at RT
How it was run: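 Concentration in the filtrate was determined by UPLC-UV or HPLC-UV with a standard curve. Before that, compound (10 mM DMSO stock) in 50 mM PB at pH 7.4 was agitated 24 h at room temperature, then PTFE-filtered with centrifugation.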

wtKIT [3] = target: T1, wtKIT; assay: HTRF biochemical assay, wtKIT (phosphorylation of a peptide substrate); conditions: Table 4
How it was run: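 HTRF read-out of FAM-peptide (1 µM) phosphorylation after anti-phosphotyrosine antibody addition and EDTA quench. Reaction: 5.0 nM wtKIT, 400 µM ATP, 10 mM Mn2+, HEPES pH 7.5, 1% DMSO, 3 h, 25 °C; optional enzyme-compound preincubation; enzyme level set for 10-20% conversion.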

T1 sequence (P10721 26-976): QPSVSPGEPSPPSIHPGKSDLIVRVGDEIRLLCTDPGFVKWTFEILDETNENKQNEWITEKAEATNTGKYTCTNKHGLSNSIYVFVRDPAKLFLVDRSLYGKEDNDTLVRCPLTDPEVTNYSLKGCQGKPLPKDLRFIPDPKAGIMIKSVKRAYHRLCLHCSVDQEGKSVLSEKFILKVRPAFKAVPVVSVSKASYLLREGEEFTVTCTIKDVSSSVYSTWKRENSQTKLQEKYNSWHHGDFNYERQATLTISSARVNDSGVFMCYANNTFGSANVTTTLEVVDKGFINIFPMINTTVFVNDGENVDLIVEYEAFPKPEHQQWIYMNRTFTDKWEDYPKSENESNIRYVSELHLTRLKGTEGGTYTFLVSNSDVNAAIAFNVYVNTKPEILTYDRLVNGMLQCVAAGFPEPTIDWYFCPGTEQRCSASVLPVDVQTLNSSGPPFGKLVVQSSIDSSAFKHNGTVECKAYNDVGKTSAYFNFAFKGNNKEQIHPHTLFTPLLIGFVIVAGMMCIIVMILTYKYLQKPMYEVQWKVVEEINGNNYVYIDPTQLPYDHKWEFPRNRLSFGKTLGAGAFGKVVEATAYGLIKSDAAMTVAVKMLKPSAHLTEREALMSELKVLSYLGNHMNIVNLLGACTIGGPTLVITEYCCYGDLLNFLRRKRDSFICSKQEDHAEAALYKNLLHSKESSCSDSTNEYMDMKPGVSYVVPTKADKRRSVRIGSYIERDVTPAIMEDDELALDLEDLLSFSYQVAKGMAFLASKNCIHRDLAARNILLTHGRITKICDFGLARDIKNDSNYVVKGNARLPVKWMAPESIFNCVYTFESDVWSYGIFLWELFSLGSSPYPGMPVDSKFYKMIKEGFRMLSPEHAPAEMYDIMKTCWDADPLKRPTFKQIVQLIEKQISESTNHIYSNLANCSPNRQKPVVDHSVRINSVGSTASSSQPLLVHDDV

| SMILES | IC50 (wtKIT [1]) | IC50 (CSF-1R) | IC50 (PDGFRα) | MDCK-BCRP: Efflux Ratio [2] | MDCK-BCRP: Papp A-B [2] | Solubility (μM) (Kinetic solubility assay) | IC50 (wtKIT [3]) |
| --- | --- | --- | --- | --- | --- | --- | --- |
| COC12CC(c3nc(-c4ccc(C)c(NC(=O)c5cnc6ccccn56)c4)no3)(C1)C2 [Compound I-368] | ≤ 50 nM | 50 to 500 nM | 50 to 500 nM | 1.09 | 15 10^−6 cm/s | **** (a solubility less than or equal to 2 μM) | – |
| Cc1ccc(-c2noc(C3CCC(=O)N3C)n2)cc1NC(=O)c1cnc2ccccn12 (racemic) [Compound I-326] | 50 to 500 nM | 500 to 5000 nM | 5000 to 30000 nM | 28.3 | 1.07 10^−6 cm/s | * (a solubility greater than 50 μM) | – |
| Cc1ccc(-c2noc([C@@H]3CCC(C)(C)N3)n2)cc1NC(=O)c1cnc2ccccn12 (racemic) [Compound I-232] | ≤ 50 nM | ≤ 50 nM | 50 to 500 nM | – | – | ** (a solubility greater than 10 μM and less than or equal to 50 μM) | 50 to 500 nM |
| Cc1ccc(-c2noc(C34COC(C)(C3)C4)n2)cc1NC(=O)c1cnc2ccccn12 [Compound I-344] | ≤ 50 nM | ≤ 50 nM | 500 to 5000 nM | 1.48 | 11.5 10^−6 cm/s | *** (a solubility greater than 2 μM and less than or equal to 10 μM) | – |
| Cc1ccc(-c2noc(C3CC(Oc4ccccc4)C3)n2)cc1NC(=O)c1cnc2ccccn12 (stereo not drawn) [Compound I-347] | ≤ 50 nM | 50 to 500 nM | 500 to 5000 nM | 1.28 | 0.17 10^−6 cm/s | **** (a solubility less than or equal to 2 μM) | – |
| Cc1ccc(-c2noc(CC3CCCOC3)n2)cc1NC(=O)c1cnc2ccccn12 (racemic) [Compound I-362] | ≤ 50 nM | 50 to 500 nM | 500 to 5000 nM | 1.35 | 8.71 10^−6 cm/s | *** (a solubility greater than 2 μM and less than or equal to 10 μM) | – |
| CCOC1CC(c2nc(-c3ccc(C)c(NC(=O)c4cnc5ccccn45)c3)no2)C1 (stereo not drawn) [Compound I-309] | ≤ 50 nM | 50 to 500 nM | 500 to 5000 nM | 1.07 | 11.3 10^−6 cm/s | *** (a solubility greater than 2 μM and less than or equal to 10 μM) | – |
| COC(=O)N1CC(c2nc(-c3ccc(C)c(NC(=O)c4cnn5cc(Br)ccc45)c3)no2)C1 [Compound I-312] | ≤ 50 nM | ≤ 50 nM | 500 to 5000 nM | 1.42 | 13.3 10^−6 cm/s | **** (a solubility less than or equal to 2 μM) | – |
| COC1(C(F)F)CC(c2nc(-c3ccc(C)c(NC(=O)c4cnc5ccccn45)c3)no2)C1 (stereo not drawn) [Compound I-325] | ≤ 50 nM | ≤ 50 nM | 50 to 500 nM | 1.39 | 11.4 10^−6 cm/s | **** (a solubility less than or equal to 2 μM) | – |
| Cc1ccc(-c2noc([C@H]3C[C@@H]3F)n2)cc1NC(=O)c1cnc2cc(Br)ccn12 [Compound I-383] | ≤ 50 nM | ≤ 50 nM | 50 to 500 nM | 1.74 | 7.55 10^−6 cm/s | **** (a solubility less than or equal to 2 μM) | – |
| Cc1ccc(-c2noc([C@H]3CCN3S(=O)(=O)C3CCOCC3)n2)cc1NC(=O)c1cnc2ccccn12 [Compound I-196] | ≤ 50 nM | ≤ 50 nM | 50 to 500 nM | – | – | ** (a solubility greater than 10 μM and less than or equal to 50 μM) | – |
